We go through 24 compounds from patent US7157487B2, “Vla-4 inhibitors” (Daiichi Pharmaceutical Co., Ltd., priority 2000, dated 2007).

The target in data set [1] is T1, integrins haα4 and β1 (VLA-4) expressed on CHO cells (Homo sapiens, UniProt P05556+P13612).
T1 construct: expressed in transfected cells; host or cells: CHO cells
Briefly: In vitro Evaluation Test (1): binding of Eu3+-hVCAM-1 D1D7-IgG to CHO cells expressing integrins α4 and β1. The note with it: inhibition of Eu3+-hVCAM-1 D1D7-IgG binding to CHO cells expressing α4β1; Ki calculated from IC50. The gist of the method: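 CHO cells transduced with human α4 and β1 were grown for 2 days. They were incubated 1 h at room temperature with Eu3+-hVCAM-1 D1D7-IgG (diluted to 2 nM before addition) and compound, with or without 6% HSA, in HEPES pH 7.5 containing Ca2+, Mg2+ and 4 mM Mn2+. Time-resolved fluorescence gave IC50; Ki used a Scatchard-derived Kd (0.06–20 nM).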

Data set [2] in a line: Evaluation of oral bioavailability by mouse bioassay. The format is in vivo. The note with it: 10 mg/kg oral, female Balb/C mice, serum 15 minutes after administration, read-out: Blood level. The protocol: A test compound was suspended or dissolved in a proper administration medium to give a concentration of 1 mg/ml. To 7 to 9 week old female Balb/C mice, 10 mg/kg of the resulting suspension or solution was orally administered. Fifteen minutes after the administration, blood was collected from the postcava under anesthesia with ether and the serum was separated from it. The concentration of each test compound was determined by estimating the serum level from a calibration curve obtained with VCAM-1/VLA-4 inhibitory activity as an index or measuring the concentration by using LC/MS/MS.

The structures appear in SMILES notation.

In general, Ki refers to a dissociation constant, usually derived from enzyme kinetics or from competition with a known ligand.

T1 sequence (P13612 34-1032): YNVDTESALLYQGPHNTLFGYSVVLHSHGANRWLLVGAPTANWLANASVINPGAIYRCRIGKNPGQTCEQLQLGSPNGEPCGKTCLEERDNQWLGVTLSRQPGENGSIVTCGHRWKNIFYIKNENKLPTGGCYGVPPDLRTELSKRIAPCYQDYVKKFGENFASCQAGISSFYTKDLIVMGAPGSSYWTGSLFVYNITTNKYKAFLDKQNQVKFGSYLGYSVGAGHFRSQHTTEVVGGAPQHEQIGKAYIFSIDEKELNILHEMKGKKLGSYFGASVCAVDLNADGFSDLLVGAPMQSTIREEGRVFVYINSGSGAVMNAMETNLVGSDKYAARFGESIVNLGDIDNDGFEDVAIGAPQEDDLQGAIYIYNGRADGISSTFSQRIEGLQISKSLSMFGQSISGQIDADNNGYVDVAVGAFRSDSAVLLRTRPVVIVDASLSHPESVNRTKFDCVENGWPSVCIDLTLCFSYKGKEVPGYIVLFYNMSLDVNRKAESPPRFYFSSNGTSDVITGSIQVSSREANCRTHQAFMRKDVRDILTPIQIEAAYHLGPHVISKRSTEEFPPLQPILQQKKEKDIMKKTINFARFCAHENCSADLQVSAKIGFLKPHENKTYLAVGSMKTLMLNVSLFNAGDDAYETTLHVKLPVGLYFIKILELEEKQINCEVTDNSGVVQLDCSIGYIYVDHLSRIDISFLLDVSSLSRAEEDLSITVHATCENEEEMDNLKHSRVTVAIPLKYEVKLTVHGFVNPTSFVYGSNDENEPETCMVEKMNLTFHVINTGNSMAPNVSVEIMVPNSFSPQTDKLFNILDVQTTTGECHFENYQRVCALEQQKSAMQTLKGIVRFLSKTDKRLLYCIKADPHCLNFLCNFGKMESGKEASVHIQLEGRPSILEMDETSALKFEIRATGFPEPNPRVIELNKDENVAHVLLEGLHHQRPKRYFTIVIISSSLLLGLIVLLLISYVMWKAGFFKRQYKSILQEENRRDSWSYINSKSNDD
T1 sequence (P05556 21-798): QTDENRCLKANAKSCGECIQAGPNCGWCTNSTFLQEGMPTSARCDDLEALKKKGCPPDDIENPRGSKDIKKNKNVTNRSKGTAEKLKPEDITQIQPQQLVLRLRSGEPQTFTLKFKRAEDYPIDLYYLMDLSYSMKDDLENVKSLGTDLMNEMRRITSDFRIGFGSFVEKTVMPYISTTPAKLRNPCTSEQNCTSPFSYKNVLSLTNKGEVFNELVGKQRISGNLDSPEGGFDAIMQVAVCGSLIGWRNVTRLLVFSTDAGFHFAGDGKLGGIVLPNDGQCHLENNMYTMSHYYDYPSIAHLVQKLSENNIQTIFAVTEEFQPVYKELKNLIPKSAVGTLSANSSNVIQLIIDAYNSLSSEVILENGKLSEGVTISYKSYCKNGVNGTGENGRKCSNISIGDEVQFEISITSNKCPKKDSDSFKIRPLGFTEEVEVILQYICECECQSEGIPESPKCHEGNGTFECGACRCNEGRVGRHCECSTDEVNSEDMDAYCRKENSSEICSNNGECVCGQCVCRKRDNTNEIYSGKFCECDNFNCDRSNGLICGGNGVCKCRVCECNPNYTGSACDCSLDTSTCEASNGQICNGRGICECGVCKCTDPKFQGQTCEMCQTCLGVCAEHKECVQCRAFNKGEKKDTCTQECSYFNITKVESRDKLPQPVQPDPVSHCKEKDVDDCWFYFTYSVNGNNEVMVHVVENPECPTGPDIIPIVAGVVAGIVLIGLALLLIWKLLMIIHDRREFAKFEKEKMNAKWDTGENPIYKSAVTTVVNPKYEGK

As to `O=C(O)C1CCC(OC[C@@H]2C[C@H](F)CN2C(=O)Cc2ccc3nc(Nc4ccccc4Cl)oc3c2)CC1` (single isomer, unassigned) [24 (Isomer A)], the inhibitory constant (Ki) in data set [1] was 14 nM. The concentration at 15 min in data set [2] came out at 2180 ng/mL. The matching figures for `O=C(O)C1CCC(OC[C@@H]2C[C@H](F)CN2C(=O)Cc2ccc3nc(Nc4ccccc4Br)oc3c2)CC1` (single isomer, unassigned) [25 (Isomer A)]: 18 nM and 1090 ng/mL. As for `O=C(O)C1CCC(OC[C@@H]2C[C@H](F)CN2C(=O)Cc2ccc(NC(=O)N3CCc4ccccc43)c(Cl)c2)CC1` (stereo partly drawn) [Example 36, 4-(1-(3-Chloro-4-(1-indolinylcarbonylamino)phenylacetyl)-(4S)-fluoro-(2S)-pyrrolidinylmethoxy)cyclohexanecarboxylic acid], the Ki in data set [1] is 1.5 nM. In data set [2], the concentration at 15 min worked out at 1100 ng/mL. The matching figures for `O=C(O)C1CCC(OC[C@@H]2C[C@H](F)CN2C(=O)Cc2ccc3nc(Nc4ccccc4Cl)oc3c2F)CC1` (stereo partly drawn) [Example 37, 4-(1-(2-(2-Chlorophenyl)amino-7-fluoro-6-benzoxazolylacetyl)-(4S)-fluoro-(2S)-pyrrolidinylmethoxy)cyclohexanecarboxylic acid]: 6.9 nM and 3690 ng/mL. Taken in the same sequence, the figures for `Cn1cc(C(=O)Nc2ccc(CC(=O)N3C[C@@H](F)C[C@H]3COC3CCC(C(=O)O)CC3)cc2Cl)c2ccccc21` (stereo partly drawn) [Example 39, 4-(1-(3-Chloro-4-(1-methyl-3-indolylcarbonylamino)phenylacetyl)-(4S)-fluoro-(2S)-pyrrolidinylmethoxy)cyclohexanecarboxylic acid] were 2.1 nM and 5160 ng/mL. The matching figures for `Cc1ccc(Cl)cc1Nc1nc2ccc(CC(=O)N3C[C@@H](F)C[C@H]3CO[C@H]3CC[C@H](C(=O)O)CC3)c(F)c2o1` [Example 43, trans-4-(1-((2-(5-Chloro-2-methylphenylamino)-7-fluoro-6-benzoxazolyl)acetyl)-(4S)-fluoro-(2S)-pyrrolidinylmethoxy)cyclohexanecarboxylic acid]: 6 nM and 1190 ng/mL. As for `Cc1ccc(F)cc1Nc1nc2ccc(CC(=O)N3C[C@@H](F)C[C@H]3CO[C@H]3CC[C@H](C(=O)O)CC3)c(F)c2o1` [Example 44, trans-4-(1-((2-(5-Fluoro-2-methylphenylamino)-7-fluoro-6-benzoxazolyl)acetyl)-(4S)-fluoro-(2S)-pyrrolidinylmethoxy)cyclohexanecarboxylic acid], the Ki in data set [1] was 2 nM. Also, in data set [2], the concentration at 15 min came to 912 ng/mL. Taken in the same sequence, the figures for `O=C(Cc1ccc(Nc2nc3ccccc3o2)c(Cl)c1)N1C[C@@H](F)C[C@H]1CO[C@H]1CC[C@H](C(=O)O)CC1` [Example 49, trans-4-(1-(4-(2-benzoxazolyl)amino-3-chlorophenylacetyl)-(4S)-fluoro-(2S)-pyrrolidinylmethoxy)cyclohexanecarboxylic acid] were 4.4 nM and 508 ng/mL. Taken in the same sequence, the figures for `O=C(Cc1cc(Cl)c(Nc2nc3ccccc3o2)cc1F)N1C[C@@H](F)C[C@H]1CO[C@H]1CC[C@H](C(=O)O)CC1` [Example 55, trans-4-(1-(4-(2-Benzoxazolyl)amino-5-chloro-2-fluorophenylacetyl)-(4S)-fluoro-(2S)-pyrrolidinylmethoxy)cyclohexanecarboxylic acid] were 8.5 nM and 2030 ng/mL. As for `Cc1ccc(F)cc1Nc1nc2ccc(CC(=O)N3[C@H](CO[C@H]4CC[C@H](C(=O)O)CC4)CC[C@@H]3C)c(F)c2o1` [Example 137, trans-4-(1-((2-(5-Fluoro-2-methylphenylamino)-7-fluoro-6-benzoxazolyl)acetyl)-(5S)-methyl-(2S)-pyrrolidinylmethoxy)cyclohexanecarboxylic acid], the Ki in data set [1] is 5.6 nM. Same read-out and setting: under `COC[C@H]1C[C@@H](CO[C@H]2CC[C@H](C(=O)O)CC2)N(C(=O)Cc2ccc3nc(Nc4cc(F)ccc4C)oc3c2F)C1` [Example 140, trans-4-(1-(7-Fluoro-2-(5-fluoro-2-methylphenylamino)-6-benzoxazolylacetyl)-(4S)-methoxymethyl-(2S)-pyrrolidinylmethoxy)cyclohexanecarboxylic acid] stands 1.8 nM.

Turning to `CC(=O)N(C)[C@H]1C[C@@H](CO[C@H]2CC[C@H](C(=O)O)CC2)N(C(=O)Cc2cc(Cl)c(NC(=O)c3cn(C)c4ccccc34)cc2F)C1` [Example 142, trans-4-(1-((5-Chloro-2-fluoro-4-(1-methyl-3-indolylcarbonylamino)phenyl)acetyl)-(4S)-(N-methylacetamido)-(2S)-pyrrolidinylmethoxy)-1-cyclohexanecarboxylic acid], the inhibitory constant (Ki) in data set [1] is 18 nM. On to `C[C@@H](CO[C@H]1CC[C@H](C(=O)O)CC1)N(C)C(=O)Cc1cc(Cl)c(NC(=O)c2cn(C)c3ccccc23)cc1F` [Example 144, trans-4-((2S)-((5-Chloro-2-fluoro-4-(1-methyl-3-indolylcarbonylamino)phenyl)-N-methylacetamido)-1-propoxy)-1-cyclohexanecarboxylic acid], for which, in data set [1], the inhibition constant Ki was 48 nM. Still for that read-out and setting: then `Cc1ccc(F)cc1Nc1nc2ccc(CC(=O)N(C)[C@@H](C)CO[C@H]3CC[C@H](C(=O)O)CC3)c(F)c2o1` [Example 145, trans-4-((2S)-((7-Fluoro-2-((5-fluoro-2-methylphenyl)amino)-6-benzoxazolyl)-N-methylacetamido)-1-propoxy)-1-cyclohexanecarboxylic acid], with 18 nM. The same measure, in the same setting: under `Cc1ccc(F)cc1Nc1nc2ccc(CC(=O)N3C[C@@H](F)C[C@H]3COc3ccc(C(=O)O)cc3)cc2o1` [Example 146, 4-(1-((2-(5-Fluoro-2-methylphenylamino)-6-benzoxazolyl)acetyl)-(4S)-fluoro-(2S)-pyrrolidinylmethoxy)benzoic acid] stands 21 nM. The same measure, in the same setting: under `Cn1cc(C(=O)Nc2ccc(CC(=O)N3C[C@@H](F)C[C@H]3COc3ccc(C(=O)O)cc3)cc2Cl)c2ccccc21` [Example 147, 4-(1-((3-Chloro-4-((1-methyl-3-indolylcarbonyl)amino)phenyl)acetyl)-(4S)-fluoro-(2S)-pyrrolidinylmethoxy)benzoic acid] stands 40 nM. On to `Cn1cc(C(=O)Nc2ccc(CC(=O)N3C[C@@H](F)C[C@H]3COc3ccc(C(=O)O)cn3)cc2Cl)c2ccccc21` [Example 150, 6-(1-(3-Chloro-4-(1-methyl-3-indolyl)carbonylaminophenylacetyl)-(4S)-fluoro-(2S)-pyrrolidinylmethoxy)nicotinic acid], for which the Ki in data set [1] is 10 nM. On the same count and under the same terms, under `Cc1ccccc1Nc1nc2ccc(CC(=O)N3CC=C[C@H]3COc3ccc(C(=O)O)cc3)cc2o1` [Example 151, 4-(3,4-Dehydro-1-((2-(2-methylphenylamino)-6-benzoxazolyl)acetyl)-(2S)-pyrrolidinylmethoxy)benzoic acid] stands 37 nM; under `COC[C@@H]1C[C@@H](O[C@H]2CC[C@H](C(=O)O)CC2)CN1C(=O)Cc1ccc2nc(Nc3cc(F)ccc3C)oc2c1F` [Example 156, trans-4-(1-((2-(5-Fluoro-2-methylphenylamino)-7-fluoro-6-benzoxazolyl)acetyl)-(2S)-methoxymethyl-(4R)-pyrrolidinyloxy)cyclohexanecarboxylic acid], 43 nM. Still for that read-out and setting: then `COC[C@@H]1C[C@@H](Oc2ccc(C(=O)O)cc2)CN1C(=O)Cc1ccc2nc(Nc3cc(F)ccc3C)oc2c1F` [Example 159, 4-(1-((2-(5-Fluoro-2-methylphenylamino)-7-fluoro-6-benzoxazolyl)acetyl)-(2S)-methoxymethyl-(4R)-pyrrolidinyloxy)benzoic acid], with 47 nM; and `Cc1ccc(F)cc1Nc1nc2ccc(CC(=O)N3CC[C@@H](O[C@H]4CC[C@H](C(=O)O)CC4)C3)c(F)c2o1` [Example 160, 4-(1-(2-(5-Fluoro-2-methylphenylamino)-7-fluoro-6-benzoxazolylacetyl)-(3R)-pyrrolidinyloxy)cyclohexanecarboxylic acid], with 61 nM. Same read-out and setting: under `Cn1cc(C(=O)Nc2cc(F)c(CC(=O)N3CC[C@@H](CO[C@H]4CC[C@H](C(=O)O)CC4)C3)cc2Cl)c2ccccc21` [Example 163, trans-4-(1-(5-Chloro-2-fluoro-4-(1-methyl-3-indolyl)carbonylaminophenylacetyl)-(3R)-pyrrolidinylmethyloxy)cyclohexanecarboxylic acid] stands 39 nM; under `COC[C@@H]1CC[C@@H](CO[C@H]2CC[C@H](C(=O)O)CC2)N1C(=O)Cc1ccc2nc(Nc3cc(F)ccc3C)oc2c1F` [Example 167, trans-4-(1-((2-(5-Fluoro-2-methylphenylamino)-7-fluoro-6-benzoxazolyl)acetyl)-(5S)-methoxymethyl-(2S)-pyrrolidinylmethoxy)cyclohexanecarboxylic acid], 0.87 nM.

Consider `COC[C@@H]1CC[C@@H](CO[C@H]2CC[C@H](C(=O)O)CC2)N1C(=O)Cc1cc(Cl)c(NC(=O)c2nn(C)c3ccccc23)cc1F` [Example 168, trans-4-(1-((5-Chloro-2-fluoro-4-((1-methyl-3-indazolyl)carbonyl)aminophenyl)acetyl)-(5S)-methoxymethyl-(2S)-pyrrolidinylmethoxy)cyclohexanecarboxylic acid], for which, in data set [1], the inhibition constant Ki is 59 nM.
